Reference: patent publication US20130023553A1, “PEGYLATED OPIOIDS WITH LOW POTENTIAL FOR ABUSE AND SIDE EFFECTS” (Nektar Therapeutics, priority 2010, published 2013)
Where two headings read alike, the source gives them in different places.

Tests used:
human mu opioid receptor [1] = target: T1, human mu opioid receptor (Homo sapiens, UniProt P35372); test: biochemical; type: binding
T1 construct: expressed in transfected cells; host or cells: CHO cells
Method: (§1) Radioligand displacement was measured using scintillation proximity assays (SPA).
(§2) Briefly, serial dilutions of the test compounds were placed in a 96-well plate to which were added SPA beads, membrane and radioligand. The assay conditions for each opioid receptor subtype are described in Table 10 below. The plates were incubated for 8 hours-overnight at room temperature, spun at 1000 rpm to pellet the SPA beads, and radioactivity was measured using the TopCount® microplate Scintillation counter. Specific binding at each concentration of test compound was calculated by subtracting the non-specific binding measured in the presence of excess cold ligand. IC50 values were obtained by non-linear regression of specific binding versus concentration curves and Ki values were calculated using Kd values that were experimentally pre-determined for each lot of membrane preparations.

human mu opioid receptor [2] = target: T1, human mu opioid receptor; test: cell-based; settings: for Emax: read-out: % max effect, mu opioid receptor
Method: (§3) Studies were conducted in CHO cells heterologously expressing the cloned human mu, kappa or delta opioid receptors. cAMP was measured using a cAMP HiRange homogenous time-resolved fluorescence assay (HTRF Assay), that is based on a competitive immunoassay principle (Cisbio, Cat.#62AM6PEC).
(§4) Briefly, suspensions of cells expressing either the mu, kappa or delta opioid receptors were prepared in buffer containing 0.5 mM isobutyl-methyl xanthine (IBMX). […] EC50 values were calculated for each compound from a sigmoidal dose-response plot of concentrations versus maximum response. To determine if the compounds behaved as full or partial agonists in the system, the maximal response at the highest tested concentrations of compounds were compared to that produced by a known full agonist.

squirrel monkeys = test: Monkey self-administration model of addictive potential
From the text: Dose-related effects of the test articles were examined, using two or more doses of each drug in 3-4 subjects in a double alternation schedule in which each unit dose (or vehicle) was used in two consecutive sessions before a change in unit dose.
Addictive potential of opioid compounds and opioid conjugates of the invention may be assessed through the use of squirrel monkey models as known in the art.
Under the double alternation schedule, each unit dose (or vehicle) was available for intravenous self-administration for two consecutive sessions before the unit dose was changed. In this way, it was possible to establish the function relating unit dose of intravenous drug to (i) number of injections per session, and/or (ii) the percentage of total responses that occur on the lever leading to self-administration (injection-lever responding, % ILR). Unit doses of drugs ranged from 0.01 to 3.2 mg/kg/injection.

Male CD-1 mice = test: Assessment of CNS side effects in mice (Straub tail, muscle rigidity, pinna reflex)
From the text: The objective of this study was to provide an approximation of the side effect profile of various oligomeric conjugates for comparison to the parent compounds by measuring various gross behavioral and physiological signs following administration of compound.
Additional evaluations included muscle rigidity and pinna reflex.
Male CD-1 mice from Charles River Laboratories, Raleigh, N.C., weighing from 16-18 grams were maintained on a regular light/dark cycle (lights on 0600-1800) with ad libitum food and water for 1 week before commencement of testing. N=2 per treatment condition, i.e., separate mice for each dose of each test article, injection was performed via a 25-gauge ⅝-inch needle on a 1-mL tuberculin syringe for the s.c. route and a 22-gauge stainless steel mouse feeding tube for the p.o. route (Becton, Dickinson & Co., Franklin Lakes, N.J.). Each treatment condition was divided about evenly between two observers. […] Test article was administered (s.c. or p.o., and the mouse was placed immediately in the observation chamber). One-half, 1, 2, and 3 hours later, the animal was observed undisturbed for gross signs such as locomotor ataxia, tremor, hyperactivity, hypoactivity, convulsions, hindlimb splay, and Straub tail, and then removed and assessed for muscle tone (normal, rigid, flaccid), pinna reflex (presence or absence), righting reflex (intact or lost), and placing (whether or not the forepaws are extended when the mouse is placed near a surface).
Each of the tables show the number of animals responding at each dose, where N=2. […] A bolded value indicates the lowest dose at which a response was detected.

[3] = Pharmacokinetics following oral (PO) dosing; type: in vivo, Sprague-Dawley rats; settings: male, Sprague-Dawley, rat, plasma; for Cmax: read-out: Cmax; for Tmax: read-out: Tmax (converted)
From the text: (§5) There were 3 rats/group. All animals were food fasted overnight. […] The predose sample was collected from the JVC.
(§6) Following the last collection point, the animals were euthanized.

[4] = Pharmacokinetics following intravenous (IV) dosing; type: in vivo, Sprague-Dawley rats; settings: male, Sprague-Dawley, rat, plasma; for Cmax: read-out: Cmax; for Vd: read-out: Vss
From the text: as §5, §6

[5] = target: T2, human kappa opioid receptor (Homo sapiens, UniProt P41145); test: biochemical; type: binding
T2 construct: expressed in transfected cells; host or cells: CHO cells
T2 sequence (P41145 whole entry): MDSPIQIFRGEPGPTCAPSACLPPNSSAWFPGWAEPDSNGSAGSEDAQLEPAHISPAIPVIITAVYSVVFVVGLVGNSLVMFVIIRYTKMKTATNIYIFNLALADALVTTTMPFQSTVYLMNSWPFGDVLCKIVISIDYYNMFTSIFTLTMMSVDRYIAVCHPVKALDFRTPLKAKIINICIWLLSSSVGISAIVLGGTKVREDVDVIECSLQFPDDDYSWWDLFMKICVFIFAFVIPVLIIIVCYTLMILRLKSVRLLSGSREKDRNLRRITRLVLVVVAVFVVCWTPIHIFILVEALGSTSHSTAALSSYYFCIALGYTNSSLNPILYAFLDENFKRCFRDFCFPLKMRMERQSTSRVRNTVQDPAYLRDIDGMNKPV
Method: as §1, §2

[6] = target: T2, human kappa opioid receptor; test: cell-based; settings: maximal response at the highest tested concentration; read-out: % max effect, kappa opioid receptor
Method: as §3, §4

[7] = CHO-K1 membranes, [3H]DAMGO 6 nM, read-out: Ki, Mu opioid receptor
[8] = maximal response at the highest tested concentration
[9] = read-out: EC50, mu opioid receptor
[10] = hydroxycodone series, 5.0 mg/kg oral, Mean ± SD
[11] = hydroxycodone series, 1 mg/kg IV, Mean ± SD
[12] = hydroxycodone series, 1 mg/kg IV, Mean ± SD, read-out: T1/2(z)

T1 sequence (P35372 whole entry): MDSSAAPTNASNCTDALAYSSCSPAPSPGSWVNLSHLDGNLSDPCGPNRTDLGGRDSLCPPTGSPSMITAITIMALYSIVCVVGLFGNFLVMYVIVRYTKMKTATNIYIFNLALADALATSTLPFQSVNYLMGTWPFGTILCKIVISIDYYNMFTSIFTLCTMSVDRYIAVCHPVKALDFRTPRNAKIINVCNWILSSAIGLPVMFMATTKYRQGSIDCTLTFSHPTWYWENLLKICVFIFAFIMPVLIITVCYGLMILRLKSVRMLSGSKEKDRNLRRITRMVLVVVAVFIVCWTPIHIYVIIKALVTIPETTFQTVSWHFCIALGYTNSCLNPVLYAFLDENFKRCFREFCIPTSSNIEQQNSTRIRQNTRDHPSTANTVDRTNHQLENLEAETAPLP

## COCCOCCOCCOC1C=CC2C3Cc4ccc(O)c5c4C2(CCN3C)C1O5 (stereo not drawn) [α-6-mPEG3-O-morphine]
Human mu opioid receptor [1]
  Ki: 0.0507 µM
Human mu opioid receptor [2]
  EC50: 0.27 µM
  Emax: 100%
Squirrel monkeys; 0.1 mg/kg/injection
  subjects showing addictive behavior: 33%
Squirrel monkeys; 0.3 mg/kg/injection
  subjects showing addictive behavior: all animals

## COCCOCCOCCOCCOCCOCCOCCOC1CCC2(O)C3Cc4ccc(OC)c5c4C2(CCN3C)C1O5 (stereo not drawn) [α-6-mPEG7-O-hydroxycodone, α-6-mPEG7-O-oxycodone]
Male CD-1 mice; PO, 1/2 responding
  Straub Tail, fold difference relative to parent compound: 30 fold
Male CD-1 mice; PO, 2/2 responding
  Loss Pinna, fold difference relative to parent compound: 30 fold
  Muscle Rigidity, fold difference relative to parent compound: 30 fold
  Straub Tail, fold difference relative to parent compound: 100 fold
Male CD-1 mice; SC, 1/2 responding
  Muscle Rigidity, fold difference relative to parent compound: >300 fold
  Straub Tail, fold difference relative to parent compound: 10 fold
Male CD-1 mice; SC, 2/2 responding
  Loss Pinna, fold difference relative to parent compound: 100 fold
  Muscle Rigidity, fold difference relative to parent compound: 30 fold
  Straub Tail, fold difference (reduction in CNS activity) relative to parent compound: 10 fold
Human mu opioid receptor [1]; [7]
  Ki: 1.61 µM
Human mu opioid receptor [2]; [8]
  Emax: 101%
Human mu opioid receptor [2]; [9]
  EC50: 7.45 µM
Squirrel monkeys; 0.03 mg/kg/injection
  injection lever responses (% ILR): only food lever responses
[3]; po, 5 mg/kg
  bioavailability: 28.1%
[3]; [10]
  AUC: 340 ng·h/mL
  MRT last: 178 min
  Cmax: 114 ± 38 ng/mL
[3]; hydroxycodone series, 5.0 mg/kg oral, Mean ± SD, * n = 2
  AUC(0-inf): 370 ng·h/mL
[3]; hydroxycodone series, 5.0 mg/kg oral, Mean ± SD, * n = 2, read-out: T1/2(z)
  half-life: 115 ± 29.2 min
[3]; hydroxycodone series, 5.0 mg/kg oral, median value
  Tmax: 120 min
[4]; [11]
  AUC: 238 ng·h/mL
  AUC(0-inf): 263 ng·h/mL
  MRT last: 54.3 min
  clearance: 63.3 ± 2.99 mL/min/kg
  Cmax: 489 ± 26.5 ng/mL
  Vd: 5.31 ± 0.139 L/kg
[4]; [12]
  half-life: 87 ± 3.25 min

## COCCOCCOCCOCCOCCOCCOC1C=CC2C3Cc4ccc(OC)c5c4C2(CCN3C)C1O5 (stereo not drawn) [α-6-mPEG6-O-codeine]
[5]
  Ki: > 160 µM
Human mu opioid receptor [1]; [7]
  Ki: 14.2 µM
[6]
  Emax: 21%
Human mu opioid receptor [2]; [8]
  Emax: 80%
Human mu opioid receptor [2]; [9]
  EC50: 97.4 µM

## COCCOCCOCCOCCOCCOC1C=CC2C3Cc4ccc(OC)c5c4C2(CCN3C)C1O5 (stereo not drawn) [α-6-mPEG5-O-codeine]
[5]
  Ki: 59.1 µM
Human mu opioid receptor [1]; [7]
  Ki: 2.43 µM
[6]
  Emax: 60%
Human mu opioid receptor [2]; [8]
  Emax: 95%
[3]; po, 5 mg/kg
  AUC: 91.8 ng·h/mL
  AUC(0-inf): 98.2 ng·h/mL
  MRT last: 108 min
  bioavailability: 10.1%
  Cmax: 48.7 ± 10.8 ng/mL
  Tmax: 15 min
[3]; po, 5 mg/kg, read-out: T1/2(2)
  half-life: 125 ± 63.7 min
[4]; iv, 1 mg/kg
  AUC: 192 ng·h/mL
  AUC(0-inf): 195 ng·h/mL
  MRT last: 31.8 min
  clearance: 86.2 ± 7.04 mL/min/kg
  Cmax: 533 ± 38.9 ng/mL
  Vd: 2.95 ± 0.157 L/kg
[4]; iv, 1 mg/kg, read-out: T1/2(2)
  half-life: 42.7 ± 3.56 min

## COCCOCCOCCOCCOC1C=CC2C3Cc4ccc(OC)c5c4C2(CCN3C)C1O5 (stereo not drawn) [α-6-mPEG4-O-codeine]
[5]
  Ki: 97 µM
Human mu opioid receptor [1]; [7]
  Ki: 2.89 µM
Human mu opioid receptor [2]; [8]
  Emax: 99%
Human mu opioid receptor [2]; [9]
  EC50: 22.1 µM
[3]; po, 5 mg/kg
  AUC: 42.2 ng·h/mL
  AUC(0-inf): 44.5 ng·h/mL
  MRT last: 83.8 min
  bioavailability: 3.47%
  Cmax: 31.1 ± 13.1 ng/mL
  Tmax: 15 min
[3]; po, 5 mg/kg, read-out: T1/2(2)
  half-life: 118 ± 60 min
[4]; iv, 1 mg/kg
  AUC: 253 ng·h/mL
  AUC(0-inf): 257 ng·h/mL
  MRT last: 27.5 min
  clearance: 65.9 ± 10.4 mL/min/kg
  Cmax: 746 ± 70 ng/mL
  Vd: 2.3 ± 0.72 L/kg
[4]; iv, 1 mg/kg, read-out: T1/2(2)
  half-life: 57.1 ± 43.8 min

## COCCOC1C=CC2C3Cc4ccc(OC)c5c4C2(CCN3C)C1O5 (stereo not drawn) [α-6-mPEG1-O-codeine]
[5]
  Ki: 54.7 µM
Human mu opioid receptor [1]; [7]
  Ki: 1.82 µM
[6]
  Emax: 51%
Human mu opioid receptor [2]; [8]
  Emax: 80%
Human mu opioid receptor [2]; [9]
  EC50: 8.57 µM
[4]; iv, 1 mg/kg
  AUC: 258 ng·h/mL
  AUC(0-inf): 262 ng·h/mL
  MRT last: 32.2 min
  clearance: 64.6 ± 8.75 mL/min/kg
  Cmax: 723 ± 31.2 ng/mL
  Vd: 2.22 ± 0.899 L/kg
[4]; iv, 1 mg/kg, read-out: T1/2(2)
  half-life: 42.1 ± 4.84 min

## COCCOCCOCCOC1CCC2(O)C3Cc4ccc(OC)c5c4C2(CCN3C)C1O5 (stereo not drawn) [α-6-mPEG3-O-hydroxycodone, α-6-mPEG3-O-oxycodone]
Human mu opioid receptor [1]; [7]
  Ki: 0.775 µM
Human mu opioid receptor [2]; [8]
  Emax: 108%
Human mu opioid receptor [2]; [9]
  EC50: 2.83 µM
Squirrel monkeys; 0.1 mg/kg/injection
  subjects showing addictive behavior: 25%
Squirrel monkeys; 0.3 mg/kg/injection
  subjects showing addictive behavior: 50%
Squirrel monkeys; 1 mg/kg/injection
  subjects showing addictive behavior: 100%
[4]; [11]
  AUC: 230 ng·h/mL
  AUC(0-inf): 233 ng·h/mL
  MRT last: 32.5 min
  clearance: 71.7 ± 4.99 mL/min/kg
  Cmax: 746 ± 2.08 ng/mL
  Vd: 2.62 ± 0.206 L/kg
[4]; [12]
  half-life: 48.5 ± 7.83 min
